Measured values taken from US20070178581A1, “Screening method and apparatus for identifying a reactive compound bonding with a target compound” (SHIMADZU CORPORATION, priority 2006, published 2007).

System: WGA (wheat germ lectin)
Test: Bonding of reactive compound with WGA, analysed by elution from the size-excluding first dimension column
Type: binding
Settings: 50 mM phosphoric acid buffer pH 6.8/0.8% NaCl, 25° C.
Experimental: FIGS. 8A and 8B show the results of the analysis of the components eluted in the first dimension column in the example shown in FIG. 5. […] The sample used consisted of WGA (1 mg/mL) for the target compound or protein, and p-nitrophenyl-di-N-acetyl-β-chitobioside (0.1 mg/mL) for the reactive compounds. For the first dimension mobile phase, 50 mM phosphoric acid buffer (pH 6.8)/0.8% NaCl solution was used, which was fed at the rate of 0.05 mL/minute. For the first dimension column 10a, a silica-based size-excluding DIOL column (product of Shimadzu Corporation) of 150 mm in length and 2 mm in internal diameter was used, while setting the column oven temperature at 25° C. In the measurements that produced the chromatogram shown in FIG. 8B, 30 μL of WGA or protein was suctioned by the sample injection nozzle 32a, and then 5 μL of p-nitrophenyl-di-N-acetyl-β-chitobioside was suctioned, followed by the injection of the sample from the sample injection nozzle 32a into the sample injection port 8. In FIGS. 8A and 8B, the peaks indicated by the broken lines are the peaks obtained when p-nitrophenyl-di-N-acetyl-β-chitobioside alone was injected into the sample injection port. The peaks of p-nitrophenyl-di-N-acetyl-β-chitobioside appear in different locations in FIGS. 8A and Bbecause the scale on the horizontal axis differs, but the retention time is identical in both graphs.

CC(=O)N[C@H]1[C@H](Oc2ccc([N+](=O)[O-])cc2)O[C@H](CO)[C@@H](O[C@@H]2O[C@H](CO)[C@@H](O)[C@H](O)[C@H]2NC(C)=O)[C@@H]1O [p-nitrophenyl-di-N-acetyl-β-chitobioside]
bonding state with WGA judged from elution time (FIG. 8B) (reactive compound (5 μL) injected first, then WGA (30 μL), separately, reaction within the size-excluding column): shifted to the location of the elution time for WGA
bonding state with WGA judged from elution time (FIG. 8A) (target and reactive compound mixed beforehand and injected as a reaction solution, WGA 1 mg/mL, compound 0.1 mg/mL): has been dissociated from WGA
